Data as given in article PMC3890288, “Toxicity of Functional Nano-Micro Zinc Oxide Tetrapods: Impact of Cell Culture Conditions, Cellular Age and Material Properties” (PLoS ONE, 2014).
Like-named read-outs stand apart in the source and are kept apart here.

Columns and labels:
[1] = tested on: normal human dermal fibroblasts (NHDF); test: MTT cell viability (cytotoxicity) assay on NHDF; type: cell-based; conditions: NHDF P6–P9, 50000 cells/cm^2, 24 h treatment
Description: Normal human dermal fibroblasts (NHDF) (PromoCell, C12300) were cultured in Quantum 333 (PAA, U15-813) supplemented with 1% (v/v) penicillin/streptomycin (PAA, P11–010). NHDF are human primary cells which were isolated from the dermis of juvenile foreskin or adult skin with different origins (PromoCell). For stock cultures, 750000 cells in 20 ml medium were seeded weekly into a T75 flask (Sarstedt) and kept at 37°C and 5% CO2 in a humidified atmosphere. The medium was changed every two to three days. For sub-culturing, cells were trypsinized by Trypsin/EDTA (PAA, L11-659). Cells were counted under the microscope.
Powder of ZnO-T was scaled and brought for each experiment fresh into dispersion with culture medium at an initial concentration of 10 mg/ml. […]
The MTT assay was used to estimate the viability of cells by measuring the production of formazan mainly through the activity of cellular mitochondrial dehydrogenase. Cell viability was determined accordingly as described in already published paper, [64]. […] Production of formazan by viable cells was estimated after 90 min (37°C, 5% CO2) by measuring the absorbance at a wavelength of 570 nm (photometer 340 ATTC, SLT Lab instruments, Germany). […]
NHDF cells (passage numbers: P10–P14) were seeded into clear flat 96-well microtiter plates (Falcon® 3072) at a cell density of 50.000 cells/cm^2. […] Cell viability was analysed 24 h later. […]

[2] = tested on: normal human dermal fibroblasts (NHDF); test: MTT cell viability (cytotoxicity) assay on NHDF; type: cell-based; conditions: 24 h treatment, expressed as Zn, read-out: ZnCl2 EC50±SE as Zn (converted)

In the case of `[Cl-].[Cl-].[Zn+2]` [ZnCl2], the “EC50±standard error” value [1] is reported as 36 ± 1.4 µg/mL, the EC50 ([1]; expressed as zinc, read-out: EC50±standard error in Zn^2+) is reported as 130 ± 10 µM and the EC50 ([2]; P11–P15, 25000 cells/cm^2) is reported as 100 µM. For the same compound, the EC50 ([2]; P11–P15, 100000 cells/cm^2) was 130 µM, the EC50 ([2]; P22–P26, 25000 cells/cm^2) was 110 µM and the EC50 ([2]; P22–P26, 100000 cells/cm^2) was 120 µM.
